Results from US11898155B2, “Method for introducing molecule and composition containing inhibitor” (Pearl Kogyo Co., Ltd., priority 2017, dated 2024).

How the values were obtained:
L-929 cells [1] = test: Gene transfer efficiency (GFP-expressing cells/viable cell number, Cytell) after plasma introduction with inhibitor treatment; assay type: cell-based, mouse; conditions: for gene introduction rate: concentration of inhibitor changed, normalized to control without inhibitor = 1 (FIGS. 8 to 11)
Description: (§1) Mouse fibroblast L-929 cells were seeded on a 96-well plate and were cultured for 24 h in CO2 incubator. A culture medium was removed by aspiration, and 100 μL of nocodazole (inhibitor) free-culture medium, 1 μM nocodazole-containing culture medium, or 100 μM nocodazole-containing culture medium was added to each well. The cells were cultured for 30 min in CO2 incubator. Next, the culture medium was removed by aspiration, and 6.0 μg/6.0 μL of pAcGFP1-N1 plasmid (selected molecule) solution was added dropwise to each well. The 96-well plate was set in plasma irradiation equipment and irradiated with plasma. Then, 100 μL of culture medium was immediately added, and the plate was returned to CO2 incubator and the cells were cultured for 24 h. The cells after the culturing were observed under a microscope.
A selected molecule was introduced in the same manner as in Example 1, except the point that in the inhibitor treatment step using 1 μM nocodazole, the treatment time was changed from 1 min to 120 min. […] The dashed line denotes the level in the case without adding nocodazole (control, left panel). The gene transfer efficiency (%) was calculated, using a Cytell (Cytell Cell Imaging System, manufactured by GE Healthcare, Inc.), as (the number of GFP-expressing cells/viable cell number).
A selected molecule was introduced in the same manner as in Example 1, except the point that the cells were treated with 5 μM or 15 μM chloroquine diphosphate and the plasma irradiation time was changed.
A selected molecule was introduced in the same manner as in Example 1, except the point that the concentration of nocodazole was changed, to determine cell viability and gene transfer efficiency. The plasma irradiation conditions were at a frequency of 20 kHz, a voltage of 15 kVpp, and an inter-electrode distance of 1 mm and for an irradiation time of 1 msec.
Cell viability and gene transfer efficiency were determined in the same manner as in Example 4, except the point that chloroquine was used as the inhibitor.
Cell viability and gene transfer efficiency were determined in the same manner as in Example 4, except the point that LY-294002 was used as the inhibitor.
Cell viability and gene transfer efficiency were determined in the same manner as in Example 4, except the point that wortmannin was used as the inhibitor.

MG63 cells [2] = test: GFP plasmid introduction by plasma with nocodazole treatment after plasma irradiation, microscope observation; assay type: cell-based, human; conditions: 1.0 μM or 0.1 μM nocodazole for 30 min after plasma irradiation; vs without nocodazole treatment (FIG. 14)
Description: (§2) By using cells (canine renal epithelial cell MDCK cells or human osteosarcoma cell MG63 cells) different from those in Example 1, gene transfer efficiency was examined when nocodazole treatment was performed after plasma irradiation. Specifically, the following protocol was used to conduct an experiment.
(§3) Canine renal epithelial cell MDCK cells or human osteosarcoma cell MG63 cells were each seeded on a 96-well plate and cultured for 24 h in CO2 incubator. The culture medium was removed by aspiration, and 6.0 μg/6.0 μL of pAcGFP1-N1 plasmid (selected molecule) solution was added dropwise to each well. The 96-well plate was set in plasma irradiation equipment and was irradiated with plasma. Then, 100 μL of nocodazole (inhibitor)-free culture medium, 1 μM nocodazole-containing culture medium, or 0.1 μM nocodazole-containing culture medium was added to each well. The cells were cultured for 30 min in CO2 incubator. After that, the culture medium was removed by aspiration and 100 μL of culture medium was added immediately. The plate was returned to CO2 incubator, and the cells were cultured for 24 h. The cells after the culturing were observed under a microscope. The plasma irradiation conditions were the same as in Example 1.

MG63 cells [3] = test: GFP plasmid introduction by plasma with nocodazole treatment before irradiation, microscope observation; assay type: cell-based, human; conditions: 1.0 μM or 0.1 μM nocodazole before plasma irradiation; vs without nocodazole treatment (FIG. 12)
Description: as §1
An experiment was conducted in the same manner as in Experiment 1, except that cells (human osteosarcoma cells, MG63 cells) different from those in Example 1 were used. The concentration of nocodazole was 1 μM or 0.1 μM.

L-929 cells [4] = test: PCR quantification of remaining plasmid gene at 24 h after introduction; assay type: cell-based, mouse; conditions: 1 μM nocodazole, from Cq values (FIG. 15)
Description: A selected molecule was introduced into mouse fibroblast L-929 cells in the same procedure as in Example 1. The resulting cells were cultured for 24 h. […] The cultured cells were collected from eight wells, and a High Pure PCR Template Preparation Kit (manufactured by Roche, Inc.) was used to recover and purify DNA. Next, 50 ng of the purified DNA was added to a PCR reaction kit SYBR Green I (Fast Start Essential DNA Green Master, manufactured by Roche, Inc.). Each resulting mixture was subjected to 40 cycles of amplification using a PCR machine (LightCycler 96 system, manufactured by Roche, Inc.). […] Each Cq value refers to a value determined by calculating a cycle number after amplification of gene sequence of interest has started and before a quantitative increase (linear increase) is initiated. The cycle number indicated by each arrow in FIG. 15(B) refers to the Cq value. When many copies of the gene sequence of interest are contained, there is a rapid increase in amplification and the Cq value is small. In addition, the inverse number of Cq value is proportional to the initial amount of the gene sequence of interest.

MDCK cells = test: GFP plasmid introduction by plasma with nocodazole treatment after plasma irradiation, microscope observation; assay type: cell-based, canine; conditions: 1.0 μM or 0.1 μM nocodazole for 30 min after plasma irradiation; vs without nocodazole treatment (FIG. 13)
Description: as §2, §3

L-929 cells [5] = test: GFP-expressing plasmid introduction by plasma irradiation after inhibitor treatment, microscope observation; assay type: cell-based, mouse; conditions: 1 μM or 100 μM nocodazole, 30 min before plasma irradiation; compared to the case without nocodazole treatment (FIGS. 2 to 4)
Description: as §1
In Example 1, the plasma irradiation conditions were at a frequency of 20 kHz, a voltage of 15 kVpp, and an inter-electrode distance of 1 mm and for an irradiation time of 1 msec or 5 msec.

CCN(CC)CCCC(C)Nc1ccnc2cc(Cl)ccc12 (stereo not drawn) [chloroquine]
gene transfer efficiency (L-929 cells [1]; chloroquine 5 μM or 15 μM, plasma irradiation time 1 msec to 10 msec, vs cells without chloroquine treatment (std) (FIG. 7(B))): increased | gene introduction rate (L-929 cells [1]; plasma irradiation 1 msec): significantly increased

COC(=O)Nc1nc2ccc(C(=O)c3cccs3)cc2[nH]1 [nocodazole]
number of GFP-expressing cells (MG63 cells [2]): increase | number of GFP-expressing cells (MG63 cells [3]): increased | gene transfer efficiency (L-929 cells [1]; 1 μM nocodazole, treatment time 1 min to 120 min, plasma irradiation time 1 msec, vs without nocodazole (FIG. 6(B))): marked increase | gene transfer efficiency (L-929 cells [1]; 1 μM nocodazole, treatment time 1 min to 120 min, plasma irradiation time 5 msec, vs cells without nocodazole (FIG. 5(B))): markedly increased | gene introduction rate (L-929 cells [1]; plasma irradiation 1 msec): significantly increased | amount of exogenous gene DNA remaining in cells relative to cells without nocodazole treatment (L-929 cells [4]): about 1.44 times | number of GFP-expressing cells (MDCK cells): increase | number of GFP-expressing cells (L-929 cells [5]): increased

O=c1cc(N2CCOCC2)oc2c(-c3ccccc3)cccc12 [LY-294002, 2-(4-morpholinyl)-8-phenyl-4H-1-benzopyran-4-one]
gene introduction rate (L-929 cells [1]; plasma irradiation 1 msec): significantly increased

COC[C@H]1OC(=O)c2coc3c2[C@@]1(C)C1=C(C3=O)[C@@H]2CCC(=O)[C@@]2(C)C[C@H]1OC(C)=O [wortmannin]
inhibitor concentration at which the gene transfer efficiency was further markedly increased (L-929 cells [1]; plasma irradiation 1 msec, 30 min inhibitor treatment (FIGS. 8 to 11)): ≤ 0.01 µM
